Data on eleven compounds can be found in PubChem BioAssay (NCI).

Test systems include SN12C renal; LOX IMVI melanoma; MALME-3M melanoma; SF-539 CNS; SK-OV-3 ovarian; HL-60(TB) leukemia; SK-MEL-5 melanoma; SNB-19 CNS; TK-10 renal; HCT-116 colon.
What all share (test): growth of human tumour cells (NCI), 48 h

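A five-concentration, 48-hour dose response in 96-well plates underlies each endpoint, interpolated linearly between surrounding concentrations. GI50 = concentration required for 50% inhibition of growth. TGI: total growth inhibition.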

In the case of `c1ccc(COC2(OCc3ccccc3)CC3OC2C2NN=NC32)cc1` (configuration not stated), the TGI with SN12C renal is more than 10 µM; in the assay on LOX IMVI melanoma it was 36.5 µM; in the assay with MALME-3M melanoma, 52.6 µM; in the assay with SF-539 CNS, 43.5 µM; in the assay with SK-OV-3 ovarian, more than 100 µM; in the assay with HL-60(TB) leukemia, 33.7 µM. This compound also registered a TGI in the assay on SK-MEL-5 melanoma of 32.3 µM.

As for `CC(=O)OC1Oc2ccccc2-c2oc(=O)c(-c3cc4ccccc4oc3=O)cc21` (configuration not stated), the GI50 is 21.5 µM in the assay with SN12C renal; 14.9 µM in the assay with LOX IMVI melanoma; 13.9 µM in the assay with MALME-3M melanoma; 17 µM in the assay on SNB-19 CNS; 18.3 µM with TK-10 renal; 19.8 µM with SF-539 CNS. In addition, the values for the GI50 with SK-OV-3 ovarian, in the assay with HL-60(TB) leukemia and in the assay with SK-MEL-5 melanoma were 13.7 µM, 39 µM and 24.8 µM, respectively. For the same compound, the TGI is 53.8 µM with SN12C renal; 29.6 µM in the assay on LOX IMVI melanoma; 36.5 µM with MALME-3M melanoma; 32.4 µM in the assay with SNB-19 CNS; 37.2 µM with TK-10 renal; 39.2 µM with SF-539 CNS. In addition, the TGI is 30 µM in the assay on SK-OV-3 ovarian, more than 100 µM in the assay on HL-60(TB) leukemia and 57.8 µM with SK-MEL-5 melanoma.

`COc1cc2c(c(OC)c1OC)-c1ccc(OC)c(=O)cc1[C@@H](N(C)C=O)CC2`: the TGI in the assay with SN12C renal was more than 100 µM; with LOX IMVI melanoma, more than 100 µM; in the assay on MALME-3M melanoma, more than 100 µM; in the assay with SNB-19 CNS, more than 100 µM; in the assay on TK-10 renal it was more than 100 µM; in the assay with SF-539 CNS, 0.0247 µM. Moreover, the TGI with HCT-116 colon worked out at 6.83 µM; in the assay with HL-60(TB) leukemia, 0.0329 µM; in the assay on SK-MEL-5 melanoma it was 0.0401 µM.

For the compound `COc1ccc2c(c1)/C(=N/OC(C)=O)c1c-2c(=O)[nH]c2ccccc12`, the GI50 is 16.2 µM with SN12C renal; 14.8 µM with LOX IMVI melanoma; 13.2 µM in the assay with MALME-3M melanoma; 15.3 µM with SNB-19 CNS; 15.2 µM in the assay with TK-10 renal; 16.9 µM with SF-539 CNS. Besides, the GI50 in the assay on HCT-116 colon was 3.35 µM; in the assay on HL-60(TB) leukemia, 1.83 µM; with SK-MEL-5 melanoma, 5.79 µM. In addition, the TGI was 31 µM with SN12C renal; 29.4 µM with LOX IMVI melanoma; 29.8 µM in the assay on MALME-3M melanoma; 40.4 µM in the assay with SNB-19 CNS; 58 µM in the assay on TK-10 renal; 46.4 µM in the assay with SF-539 CNS. Besides, the TGI was 12.4 µM with HCT-116 colon, 4.88 µM in the assay on HL-60(TB) leukemia and 19.4 µM in the assay with SK-MEL-5 melanoma.

For `CC/C=C/c1cc2cc[nH]c2c2c1C(C)C[C@@H]2C` (some centres not stated), the TGI with SN12C renal is 35 µM; with LOX IMVI melanoma it was 31 µM; with MALME-3M melanoma it was more than 100 µM; with TK-10 renal, more than 100 µM; with SF-539 CNS, 50.1 µM; in the assay on HCT-116 colon it was 29.7 µM. The TGI was more than 100 µM in the assay on SK-OV-3 ovarian, 58.3 µM in the assay with HL-60(TB) leukemia and 46.4 µM in the assay with SK-MEL-5 melanoma.

Turning to `CCNCCCn1c2c(c3ccc([N+](=O)[O-])cc3c1=O)C(=O)c1cc(OC)cnc1-2`, the GI50 is 0.0531 µM in the assay on SN12C renal; 0.0265 µM with LOX IMVI melanoma; 0.162 µM in the assay on MALME-3M melanoma; 0.0576 µM in the assay with SNB-19 CNS; 0.294 µM in the assay with TK-10 renal; 0.0696 µM with SF-539 CNS. The GI50 was 0.0589 µM with SK-OV-3 ovarian, 0.037 µM in the assay on HL-60(TB) leukemia and 0.078 µM with SK-MEL-5 melanoma. The TGI in the assay with SN12C renal stood at 1.08 µM; with LOX IMVI melanoma it was 0.131 µM; with MALME-3M melanoma it was 0.715 µM; with SNB-19 CNS it was 2.53 µM; with TK-10 renal, 1.47 µM; in the assay with SF-539 CNS it was 0.579 µM. Further, the TGI turned out to be 1.62 µM in the assay with SK-OV-3 ovarian, 0.657 µM in the assay with HL-60(TB) leukemia and 0.234 µM in the assay with SK-MEL-5 melanoma.

`Cc1cc(N(CCCl)CCCl)ccc1/C=N/NC(=O)Cc1cc(=O)oc2cc(O)ccc12`: the TGI in the assay with SN12C renal is 38.2 µM; in the assay on LOX IMVI melanoma it was 26.7 µM; in the assay on MALME-3M melanoma it was 27.7 µM; with SNB-19 CNS, 41 µM; in the assay on SF-539 CNS, 40.7 µM; in the assay on HCT-116 colon, 40.5 µM. The TGI in the assay with HL-60(TB) leukemia worked out at 33.5 µM; in the assay with SK-MEL-5 melanoma, 21.1 µM.

Turning to `CCC(C(=O)c1ccccc1)C(CCCC(=O)Nc1c(C)cccc1C)N=O` (configuration not stated), the TGI in the assay with SN12C renal, in the assay on MALME-3M melanoma, in the assay on SNB-19 CNS, in the assay with TK-10 renal, in the assay on SF-539 CNS and in the assay on HCT-116 colon was more than 100 µM each time. Further, the TGI in the assay with SK-OV-3 ovarian, in the assay with HL-60(TB) leukemia and in the assay on SK-MEL-5 melanoma was more than 100 µM in each case.

`C=C1C[C@@]2(C)C(CC[C@]3(C)C2CC=C2C4CC(C)(C)C[C@@H](OC(=O)/C(C)=C\C)[C@]4(C(=O)O)CC[C@]23C)C(C)(C)C1=O` (some centres not stated): the GI50 in the assay on SN12C renal is 3.22 µM; in the assay with MALME-3M melanoma, 3.89 µM; in the assay on SNB-19 CNS it was 4.65 µM; in the assay with TK-10 renal, 4.57 µM; in the assay with SF-539 CNS, 2.75 µM; with HCT-116 colon, 1.81 µM. For the same compound, the GI50 in the assay with SK-OV-3 ovarian was 14.3 µM; in the assay on HL-60(TB) leukemia, 2.56 µM; in the assay with SK-MEL-5 melanoma, 3.35 µM. Also, the TGI with SN12C renal was determined as 15.2 µM; with MALME-3M melanoma, 15.6 µM; in the assay on SNB-19 CNS it was 17.4 µM; in the assay with TK-10 renal it was 17.9 µM; in the assay on SF-539 CNS, 8.55 µM; with HCT-116 colon, 3.91 µM. Also, the TGI in the assay with SK-OV-3 ovarian came to 33.4 µM; in the assay with HL-60(TB) leukemia, 7.08 µM; with SK-MEL-5 melanoma, 11.2 µM.

Turning to `CC1(C)CC2(C)CC1CC2NC(=O)CCN1CCOCC1` (configuration not stated), the TGI in the assay with SN12C renal, in the assay with MALME-3M melanoma, in the assay on SNB-19 CNS, with TK-10 renal, in the assay with SF-539 CNS and in the assay on HCT-116 colon was more than 100 µM each time. Also, the TGI in the assay with SK-OV-3 ovarian, in the assay on HL-60(TB) leukemia and in the assay on SK-MEL-5 melanoma was more than 100 µM throughout.

On to `O=C(NCc1ccncc1)C1COc2cc(-c3cc(=O)c4ccccc4o3)ccc2O1` (configuration not stated), for which the TGI in the assay with SN12C renal, in the assay with LOX IMVI melanoma, in the assay on MALME-3M melanoma, in the assay with TK-10 renal, in the assay on SF-539 CNS and in the assay on HCT-116 colon was more than 100 µM each time. Moreover, the TGI with SK-OV-3 ovarian, with HL-60(TB) leukemia and with SK-MEL-5 melanoma was more than 100 µM in each case.
